Tests used:
[1] = system: Tetranychus urticae; test: Tetranychus urticae spray test, OP-resistant (TETRUR); type: in vivo; details: application rate of 500 g/ha, after 6 days
Outline: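 Mortality as % efficacy (0% = no mites killed) read 6 days after spraying. Formulation: active ingredient in acetone/dimethylformamide plus emulsifier, diluted with emulsifier-containing water, applied to Phaseolus vulgaris leaf discs carrying every life stage of OP-resistant spider mites.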

[2] = log P by HPLC (OECD Guideline 117), method [a] acidic range; type: physicochemical; details: for logP[a]: HPLC, method [a] acidic range; for chromatographic logP: reversed-phase C18 HPLC column, acidic range
Protocol: (§1) The log P values were determined analogously to OECD Guideline 117 (EC Directive 92/69/EEC) by HPLC (high-performance liquid chromatography) using reversed-phase columns (C 18), by the following methods:
[a] The LC-MS determination in the acidic range is effected at pH 2.7 with 0.1% aqueous formic acid and acetonitrile (contains 0.1% formic acid) as eluents; linear gradient from 10% acetonitrile to 95% acetonitrile.

[3] = log P by HPLC (OECD Guideline 117), method [b] neutral range; type: physicochemical; details: HPLC; for logP[b]: method [b] neutral range
Protocol: as §1
[b] The LC-MS determination in the neutral range is effected at pH 7.8 with 0.001 molar aqueous ammonium hydrogencarbonate solution and acetonitrile as eluents; linear gradient from 10% acetonitrile to 95% acetonitrile.

logP[a] [2] | logP[b] [3] | chromatographic logP ([2]; pH 2.7, HPLC method [a], read-out: logP[a]) | chromatographic logP ([2]; pH 2.7, HPLC, pH 2.7, read-out: log P[a]) | chromatographic logP ([3]; reversed-phase C18 HPLC column, neutral range, pH 7.8) | Structure (SMILES) | efficacy [1] | pest or weed control at 500 g/ha ([1]; Tetranychus urticae, 144 h, read-out: efficacy)
2.24 | 2.23 | – | – | – | COC1=CC(=O)N(c2cc([S+]([O-])CC(F)(F)F)c(Cl)cc2Cl)C1 (racemic) [Example 314] | 100% | –
2.91 | 2.87 | – | – | – | CCc1nn(-c2cc(SCC(F)(F)F)c(C)cc2F)c(=O)n1-c1cccnc1 [Example 348] | 90% | –
4.59 | 4.54 | – | – | – | Cc1ccc(-n2nc(OC(C)C)n(C3CC3)c2=O)cc1SCC(F)(F)F [Example 91] | 100% | –
– | – | 3.6 | 3.6 | 3.61 | CC1=C(C)C(=O)N(c2cc(SCC(F)(F)F)c(C)cc2F)C1=O [Example 339, 1-{2-Fluoro-4-methyl-5-[(2,2,2-trifluoroethyl)sulphanyl]phenyl}-3,4-dimethyl-1H-pyrrole-2,5-dione] | – | 90%
1.85 | 1.79 | – | – | – | Cc1cc(F)c(-n2nc(C)n(C3CC3)c2=O)cc1[S+]([O-])CC(F)(F)F (stereo not shown) [Example 41] | 90% | –
2.74 | 2.71 | – | – | – | Cc1cc(F)c(-n2nc(NC(C)C)n(N)c2=O)cc1SCC(F)(F)F [Example 224] | 90% | –
4.01 | 3.92 | – | – | – | Cc1cc(C)c(-n2nc(OCC(F)(F)F)n(C3CC3)c2=O)cc1SCC(F)(F)F [Example 377] | 100% | –
2.53 | 2.46 | – | – | – | CCn1c([S+](C)[O-])nn(-c2cc(SCC(F)(F)F)c(C)cc2F)c1=O (stereo not shown) [Example 240] | 100% | –
3.98 | 3.93 | – | – | – | Cc1cc(Cl)c(-n2nc(OCC(F)(F)F)n(C3CC3)c2=O)cc1SCC(F)(F)F [Example 187] | 90% | –
3.07 | 3.04 | – | – | – | Cc1ccc(-n2nnn(C)c2=O)cc1SCC(F)(F)F [Example 296] | 90% | –
2.46 | 2.42 | – | – | – | COn1c(C(C)C)nn(-c2cc([S+]([O-])CC(F)(F)F)c(C)cc2F)c1=O (stereo not shown) [Example 419] | 100% | –
2.44 | 2.44 | – | – | – | CCOc1nn(-c2cc([S+]([O-])CC(F)(F)F)c(C)cc2F)c(=O)n1CC (stereo not shown) [Example 409] | 90% | –
3.62 | 3.56 | – | – | – | C=CCSc1nn(-c2cc(SCC(F)(F)F)c(C)cc2F)c(=O)n1C [Example 290] | 100% | –
1.92 | 1.86 | – | – | – | COCCOC1=CC(=O)N(c2cc([S+]([O-])CC(F)(F)F)c(C)cc2F)C1 (stereo not shown) [Example 335] | 90% | –
2.52 | 2.47 | – | – | – | Cc1cc(F)c(-n2nc(C(C)C)n(C3CC3)c2=O)cc1[S+]([O-])CC(F)(F)F (stereo not shown) [Example 43] | 100% | –
4.13 | 3.98 | – | – | – | CC(C)(C)COc1nn(-c2cc([S+]([O-])CC(F)(F)F)c(Cl)cc2F)c(=O)n1C1CC1 (stereo not shown) [Example 402] | 90% | –
4.43 | 4.48 | – | – | – | O=c1n(-c2ccc(Br)c(SCC(F)(F)F)c2)nc(OCC(F)(F)F)n1C1CC1 [Example 378] | 90% | –
2.86 | 2.79 | – | – | – | CCC(C)c1nn(-c2cc([S+]([O-])CC(F)(F)F)c(C)cc2F)c(=O)n1C1CC1 (racemic) [Example 86] | 100% | –
3.71 | 3.75 | – | – | – | Cc1cc(F)c(-n2nc(SCC(F)F)n(C3CC3)c2=O)cc1SCC(F)(F)F [Example 258] | 90% | –
4.06 | 3.96 | – | – | – | CCCOc1nn(-c2cc(SCC(F)(F)F)c(C)cc2F)c(=O)n1CC [Example 400] | 100% | –
2.83 | 2.76 | – | – | – | COCCOc1nn(-c2cc(SCC(F)(F)F)c(C)cc2F)c(=O)n1C [Example 149] | 100% | –

— patent US9981940B2, “Aryl sulfide derivatives and aryl sulfoxide derivatives as acaricides and insecticides” (BAYER CROPSCIENCE AKTIENGESELLSCHAFT, priority 2013, dated 2018)
